Assay results: the NIST ThermoML archive (doi:10.1016/j.jct.2012.08.014)
Numbers after ± are expanded uncertainties.

Conditions: Liquid, Vibrating tube method

CC(O)CO (stereo unspecified) [1,2-propanediol]
mass density [kg/m3]
Conditions | 278.15 K | 288.15 K | 298.15 K | 308.15 K | 318.15 K | 328.15 K | 338.15 K | 348.15 K | 358.15 K
100 kPa | 1047.1 ± 2.4 | 1039.9 ± 2.4 | 1032.5 ± 2.4 | 1025.3 ± 2.4 | 1017.7 ± 2.4 | 1010 ± 2.4 | 1002.2 ± 2.4 | 994.1 ± 2.4 | 985.8 ± 2.4
1000 kPa | 1047.3 ± 2.4 | 1040.2 ± 2.4 | 1032.9 ± 2.4 | 1025.5 ± 2.4 | 1018 ± 2.4 | 1010.3 ± 2.4 | 1002.4 ± 2.4 | 994.5 ± 2.4 | 986.2 ± 2.4
5000 kPa | 1049.2 ± 2.4 | 1042.1 ± 2.4 | 1034.8 ± 2.4 | 1027.5 ± 2.4 | 1020.2 ± 2.4 | 1012.7 ± 2.4 | 1004.8 ± 2.4 | 996.9 ± 2.4 | 988.8 ± 2.4
10000 kPa | 1051.2 ± 2.4 | 1044.4 ± 2.4 | 1037.2 ± 2.4 | 1030.1 ± 2.4 | 1022.8 ± 2.4 | 1015.4 ± 2.4 | 1007.6 ± 2.4 | 999.9 ± 2.4 | 991.9 ± 2.4
15000 kPa | 1053.4 ± 2.4 | 1046.7 ± 2.4 | 1039.6 ± 2.4 | 1032.5 ± 2.4 | 1025.4 ± 2.4 | 1018 ± 2.4 | 1010.4 ± 2.4 | 1002.8 ± 2.4 | 995 ± 2.4
20000 kPa | 1055.5 ± 2.4 | 1048.9 ± 2.4 | 1041.9 ± 2.4 | 1034.9 ± 2.4 | 1027.9 ± 2.4 | 1020.6 ± 2.4 | 1013 ± 2.4 | 1005.5 ± 2.4 | 997.8 ± 2.4
25000 kPa | 1057.6 ± 2.4 | 1051.1 ± 2.4 | 1044.1 ± 2.4 | 1037.2 ± 2.4 | 1030.3 ± 2.4 | 1023.1 ± 2.4 | 1015.6 ± 2.4 | 1008.2 ± 2.4 | 1000.6 ± 2.4
30000 kPa | 1059.6 ± 2.4 | 1053.2 ± 2.4 | 1046.3 ± 2.4 | 1039.5 ± 2.4 | 1032.7 ± 2.4 | 1025.6 ± 2.4 | 1018.2 ± 2.4 | 1010.9 ± 2.4 | 1003.4 ± 2.4
35000 kPa | 1061.6 ± 2.4 | 1055.4 ± 2.4 | 1048.4 ± 2.4 | 1041.6 ± 2.4 | 1035 ± 2.4 | 1027.9 ± 2.4 | 1020.7 ± 2.4 | 1013.4 ± 2.4 | 1006 ± 2.4
40000 kPa | 1063.6 ± 2.4 | 1057.4 ± 2.4 | 1050.6 ± 2.4 | 1043.8 ± 2.4 | 1037.2 ± 2.4 | 1030.3 ± 2.4 | 1023.2 ± 2.4 | 1016 ± 2.4 | 1008.5 ± 2.4
45000 kPa | 1065.6 ± 2.4 | 1059.4 ± 2.4 | 1052.5 ± 2.4 | 1046 ± 2.4 | 1039.4 ± 2.4 | 1032.5 ± 2.4 | 1025.5 ± 2.4 | 1018.4 ± 2.4 | 1011.2 ± 2.4
50000 kPa | 1067.5 ± 2.4 | 1061.4 ± 2.4 | 1054.6 ± 2.4 | 1048.1 ± 2.4 | 1041.5 ± 2.4 | 1034.7 ± 2.4 | 1027.9 ± 2.4 | 1020.9 ± 2.4 | 1013.6 ± 2.4
55000 kPa | 1069.3 ± 2.4 | 1063.4 ± 2.4 | 1056.6 ± 2.4 | 1050.1 ± 2.4 | 1043.6 ± 2.4 | 1036.9 ± 2.4 | 1030.2 ± 2.4 | 1023.2 ± 2.4 | 1016.1 ± 2.4
60000 kPa | 1071.4 ± 2.4 | 1065.3 ± 2.4 | 1058.5 ± 2.4 | 1052.2 ± 2.4 | 1045.7 ± 2.4 | 1039 ± 2.4 | 1032.4 ± 2.4 | 1025.6 ± 2.4 | 1018.5 ± 2.4
